According to patent publication US20200171132A1, “METHODS OF INHIBITING FUNGAL CERAMIDE SYNTHASE FOR TREATMENT OF CRYPTOCOCCUS NEOFORMANS INFECTION” (The Research Foundation for the State University of New York, priority 2017, published 2020):

What follows are compounds tested on fungal Cer1 (Cn Cer1) (assay: High throughput ceramide synthase assay (96-well, NBD-sphingosine, SPE)). Settings: 1 micromolar; wells contained 10 compounds each; 1 hour at 37° C.
Format: biochemical, Cryptococcus neoformans
Experimental: The compounds were first diluted to 1 mM each (1:10 dilution with 10% DMSO) with a physiological buffer (YNB medium buffered with HEPES at pH 7.4 containing 2% glucose) and subsequently diluted to 300 μM (1:3.3 dilution) with the same medium (3% DMSO). A 100-μl aliquot of this solution was placed into each well of a 96-well master plate and stored at −20° C. until use. Each well in the screening master plates contained 10 compounds at 1 μM each. The ceramide synthase reaction was performed in a 96-well plate format using fungal Cer1 (Cn Cer1) or human ceramide synthase (Hu-Cer1, -Cer2, -Cer3, -Cer4, -Cer5, or -Cer6) enzyme, containing NBD-Sphingosine (NBD-Sph) (Avanti Polar Lipids) and 18:0 Coenzyme A (Stearoyl Coenzyme A, Avanti Polar Lipids) as substrates using the following concentrations: 10 μM NBD-Sph and 50 μM fatty acid CoA. The reaction mixture was prepared in HEPES buffer (20 mM HEPES, pH 7.2, 25 mM KCl, 250 mM sucrose, and 2 mM MgCl2). Library compounds were added and plate incubated for 1 hour at 37 C. The lipid product (NBD-ceramide) was separated using solid phase extraction (SPE) column chromatography using Strata® C18-E, 96 well plates (Phenomenex). Reaction product was measured using a plate reader.
The Cn Cer1 enzyme is expressed using the pYES-GAL1 galactose inducible system in Saccharomyces cerevisiae whereas the mammalian ceramide synthases (Cer1-6) are induced with tetracycline using the Tet-On System in HCT-116 cells under the control of Geneticin and Blasticidin. Cn Cer1 or Hu Cer1-6 enzymes were extracted using the tag system and enriched in microsomal preparation. Before using the enzymes in the plate screening, each preparation was tested for ceramide activity using the TLC assay illustrated in FIG. 11, to make sure the ceramide synthase activity works as expected. Appropriate negative controls (e.g. Cn Cer1 on glucose or Hu Cer1 in absence of tetracycline) were included in each plate during the screening.
The ceramide synthase assay was performed using NBD-Sphingosine (NBD-Sph) (Avanti polar lipids) and 18:0 Coenzyme A (Stearoyl Coenzyme A, Avanti polar lipids) as substrates using the following concentrations: 10 μM NBD-Sph and 50 μM fatty acid CoA. Enzyme(s)—ceramide synthases—were prepared using microsome purification of the yeasts or mammalian expression system. For yeast, the S. cerevisiae strain BY4741 expressing C. neoformans ceramide synthase 1 using the pYES GAL1 expression system was grown in 200 ml of liquid YNB 2% galactose medium for 16 hours. The same strain grown in the same medium but containing 2% glucose was used as a negative control because the Cn Cer1 gene is under the control of the galactose promoter (GAL1). Cells were then harvested by centrifugation, resuspended in 2 ml of Lysis Buffer (20 mM HEPES/KOH, pH 7.4, 25 mM KCl, 2 mM MgCl2, 250 mM sorbitol) and 50 μl of proteinase inhibitor mixture (Sigma-Aldrich)/g of cells, and broken by bead-bashing at 4° C. for 1.5 h. Cell debris were removed by centrifuging at 1000 g at 4° C. for 10 min. The supernatant was loaded on a 60% (w/w) sucrose cushion and centrifuged at 100,000 g for 1 h. The microsomes were collected from the interphase, snap frozen in liquid nitrogen, and stored at −80° C. until use.
The high throughput assays were adapted from the Avanti Ceramide synthase assay kit (https://avantilipids.com/product/640011/). The reactions were first downsized to 20 μl in a 96-well plate format using human ceramide synthases (Cer1, […], Cer3, Cer4, Cer5, or Cer6) along with Cn Cer1. Lipid product (NBD-ceramide) was separated using solid phase extraction (SPE) column chromatography using Strata® C18-E, 96 well plates (Phenomenex). The reaction product was measured using a plate reader, as in FIG. 12. The Z′ score of the assay is 0.80194, which is considered excellent (FIG. 12).
An initial screening yielded compounds 1-10 (Table 3). […]

| Compound | % reduction in activity (inhibition of Cn Cer1 synthse activity) |
| --- | --- |
| CC(C)Nc1cc(-c2ccc3c(c2)OCO3)nc(N)n1 [Compound 1] | 94.43% |
| OCc1cc(-c2ccc3ccccc3n2)ccc1F [Compound 2] | 94.43% |
| C=CCc1cc(-c2[nH]cnc2-c2ccccc2)cc(OC)c1O [Compound 3] | 94.43% |
| Cc1ccsc1C(=O)N1CCN2C(=O)CNC(=O)C2C1 (stereo not drawn) [Compound 4] | 94.43% |
| Cn1ccnc1CN(Cc1cc2ccccc2o1)C1CC1 [Compound 5] | 94.43% |
| CCN(C/C=C/c1ccccc1)C(=O)c1cc2cccnc2nc1C [Compound 6] | 94.43% |
| CCN(CC1CCCCO1)C(=O)c1cccc(-n2cnnc2)c1 (stereo not drawn) [Compound 7] | 94.43% |
| CC(C)CN1CC(C(=O)NCc2nncn2C2CCCCC2)CC1=O (stereo not drawn) [Compound 8] | 94.43% |
| CC(Cn1ccc2ccccc21)NC(=O)c1ccc(-n2cnnc2)cc1 (stereo not drawn) [Compound 9] | 94.43% |
| CCN(C/C=C/c1ccccc1)C(=O)c1ccc(-n2cnnc2)cc1 [Compound 10] | 94.43% |
| Cc1ccc(F)cc1NC(=O)N1CCOC2(CNCCOC2)C1 (stereo not drawn) [Compound 11] | 87.67% |
| c1cncc(COC2CCN(Cc3ccc(-c4cc[nH]n4)s3)CC2)c1 [Compound 12] | 87.67% |
| CN1CC2(CCCN(C(=O)c3ccc4c(c3)OCCN4C)CC2)OC1=O (stereo not drawn) [Compound 13] | 87.67% |
| CN(Cc1cc2cc(F)ccc2[nH]1)C(=O)c1ccccc1C1CCNC1 (stereo not drawn) [Compound 14] | 87.67% |
| CCn1c(C2CCN(C(=O)C(N)CC3CCCC3)CC2)nn(C)c1=O (stereo not drawn) [Compound 15] | 87.67% |
| Cc1nc[nH]c1-c1nccn1C(C)c1cccs1 (stereo not drawn) [Compound 16] | 87.67% |
| Clc1cccc2ccc(CN3CCn4cncc4C3)nc12 [Compound 17] | 87.67% |
| COc1cccc2c1OCCCN(C(=O)c1cn3c(n1)CNCC3)C2 [Compound 18] | 87.67% |
| FC(F)(F)C1CCN(Cc2cc3n(n2)CCNC3)CC1 [Compound 19] | 87.67% |
| Fc1cccc(CN2CCN(Cc3cnc(NCC4CCCO4)nc3)CC2)c1 (stereo not drawn) [Compound 20] | 87.67% |
| CCCCN(Cc1ccco1)C(=O)c1cc(C)[nH]c(=O)c1 [Compound 21] | 86.1% |
| O=C(NCCC1=CCCN(CCCF)C1)c1cccs1 [Compound 22] | 86.1% |
| CCN(Cc1ccc(-n2cccn2)cc1)CC1CCOCC1 [Compound 23] | 86.1% |
| O=C(NCC1(Cn2cccn2)CC1)c1ccccc1N1CCOCC1 [Compound 24] | 86.1% |
| C/C(=C\c1ccccc1)CN1CCC(CN)C1 (stereo not drawn) [Compound 25] | 86.1% |

| Compound | % reduction in activity (inhibition of Cn Cer1 synthse activity) |
| --- | --- |
| CCC[C@@H]1C[C@H](NC(C)=O)C[C@H](C2CCCCC2)O1 [Compound 26] | 86.1% |
| CCc1ncc(C(=O)N2CCN(CC(C)C)C(=O)C2C)cn1 (stereo not drawn) [Compound 27] | 86.1% |
| COc1cc(F)c(C2CC(=O)Nc3cc(N4CCNC4=O)ccc32)cc1OC (stereo not drawn) [Compound 28] | 86.1% |
| Cc1cc2c(cc1O)NC(=O)CC2c1c[nH]nc1-c1ccc(F)cc1 (stereo not drawn) [Compound 29] | 86.1% |
| Cc1nc(CC(=O)NCCSc2nnc(C)s2)cs1 [Compound 30] | 86.1% |
| O=C1NCC2(CCCN(c3ncnc4[nH]ccc34)CC2)O1 (stereo not drawn) [Compound 31] | 85.73% |
| O=C1NCC2(CCCN(c3nnnn3-c3ccccc3)CC2)O1 (stereo not drawn) [Compound 32] | 85.73% |
| Cc1nc(C(C)C)ncc1C(=O)N(C)Cc1snnc1C [Compound 33] | 85.73% |
| CCn1c(C2CCN(C(=O)C(C)n3cncn3)CC2)nn(C)c1=O (stereo not drawn) [Compound 34] | 85.73% |
| CCSc1nc(CC(=O)N2[C@@H]3CC[C@H]2C[C@@H](O)C3)cs1 [Compound 35] | 85.73% |
| Cc1noc(C)c1-n1c(CCCN2CCOCC2)n[nH]c1=O [Compound 36] | 85.73% |
| CC(C)Cc1n[nH]c(Cn2nc(Cc3ccccc3)c3ccccc3c2=O)n1 [Compound 37] | 85.73% |
| Cc1cc(C)n2nc(C(=O)N3CCC4(CN(C)C(=O)O4)C3)cc2n1 (stereo not drawn) [Compound 38] | 85.73% |
| CN(C)CC1COCCN(Cc2c(-c3ccccc3)nc3ncccn23)C1 (stereo not drawn) [Compound 39] | 85.73% |
| NC(=O)c1cccc(CC2CCN(C(=O)CCn3ccccc3=O)C2)c1 (stereo not drawn) [Compound 40] | 85.73% |
| O=C(Nc1cccnc1)c1ccc(-c2cccc3cccnc23)o1 [Compound 41] | 84.91% |
| CN1CCC2(CC1)CCN(C(=O)c1cccc(Oc3ncccn3)c1)C2 [Compound 42] | 84.91% |
| CC(=O)N(C)CC1=CCCN(Cc2cc(F)c(F)cc2F)C1 [Compound 43] | 84.91% |
| O=C1NCC(=O)N2CCN(C(=O)c3cccc4c3NCCC4)CC12 (stereo not drawn) [Compound 44] | 84.91% |
| CC(=O)N(CCc1ccc(F)cc1)CC1=CCCN(CCO)C1 [Compound 45] | 84.91% |
| CNc1ncc(CN(C)C(=O)c2cnn[nH]2)cn1 [Compound 46] | 84.91% |
| Cc1cc2[nH]c(CN3CCCC3c3nc4cc(F)ccc4[nH]3)cc(=O)n2n1 (stereo not drawn) [Compound 47] | 84.91% |
| O=C(c1cnn[nH]1)N1CCC(Oc2ncccn2)CC1 [Compound 48] | 84.91% |
| Cc1ccccc1-n1cc(CN(C)C(=O)c2ccccc2C2CCNC2)cn1 (stereo not drawn) [Compound 49] | 84.91% |
| CCc1nc(C)sc1CNc1nc(-c2cccnc2)nc2c1cnn2C [Compound 50] | 84.91% |

The compounds below were run on Pma1 (assay: Glucose dependent medium acidification (plasma membrane H+-ATPase activity)). Settings: Δgcs1 strain upon treatment.
Format: cell-based, Cryptococcus neoformans
Experimental: Glucose-dependent medium acidification was monitored by a modification of a procedure described previously (Perlin, Brown et al. 1988, Soteropoulos, Vaz et al. 2000). Cultures of Cn strain WT, Δcer1, Δcer1+CER1, Δgcs1 were grown to mid-log Phase in YPD. The next day, these cells were transferred to DMEM at pH 4.0 and allowed to grow under shaking conditions for 24 hours. These cells were then harvested and washed using 100 mM KCl, pH 5.0. These pellets were then resuspended in 10 ml KCl, pH 5.0 and incubated under shaking condition at 30° C. These samples were then stored at 4° C. overnight prior to use. For the assay, cells were concentrated to a final A590 of approximately 2.0. 20 μl cells along with 155 μl of bromophenolblue (50 μg/ml) in 100 mM KCl, pH 5.0. 20 μl 20% (w/v) glucose was added to initiate the reaction. Medium acidification was monitored at 590 nm over a period of 5 hours (data point every 3 mins) in a microplate reader (SpectraMax M5).

| Compound | Pma1 activity |
| --- | --- |
| Aureobaisdin A [AbA] | reduced |
